Reference: the METLIN SMRT retention time set (Domingo-Almenara et al. 2019)

assay: gradient 5% acetonitrile 3 min, to 50% in 2 min, to 85% in 15 min, held 3 min, 100 µL/min; conditions: column: Zorbax Extend-C18 2.1 x 50 mm; eluents: water / acetonitrile, 0.1% formic acid
Method in brief: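 Retention times of pure standards were taken from adduct peaks that were selected by computer and manually inspected. Over 3 months, mixtures of ~100 molecules were run by HPLC–quadrupole time-of-flight mass spectrometry in positive and negative ionization mode. The Zorbax Extend-C18 column (2.1 × 50 mm, 1.8 μm) ran at 100 μL/min in water and acetonitrile, each containing 0.1% formic acid, with 40 μL dead volume and 900 μL dwell volume.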

First: COc1cc(Cl)c(NC(=O)CN2C(=O)CN(C)C(=O)c3ccccc32)c(OC)c1
Second: COc1cc(N2C=C(C#N)S(=O)(=O)c3ccc(Cl)cc32)c(OC)cc1Cl
The RP-LC retention time of the first is lower: 717 s for the first, 1050 s for the second.

Compared with `O=C(NCc1ccco1)N1CCN(Cc2nc3cccnc3n2-c2ccccc2)CC1`, `CCc1nc2cccnc2n1CCN1CCN(C(=O)Nc2ccccc2Br)CC1` is higher in RP-LC retention time: 620 s for the first, 641 s for the second.

Going from `O=C1c2c(O)cc(O)cc2OC(c2ccc(O)c(O)c2)C1O` (centres undefined) to `Cc1ccc(N2CCC(NC(=O)Nc3cc(F)cc(F)c3)C2=O)cc1C` (centres undefined), the RP-LC retention time rises from 687 s to 903 s.

Going from `Cc1ccnc(N2CCCC(C(=O)NCCCN3CCN(c4cc(Cl)ccc4C)CC3)C2)n1` (centres undefined) to `CCOC(=O)c1nc(NCCCN2CCN(c3cc(Cl)ccc3C)CC2)c2ccccc2n1`, the RP-LC retention time rises from 670 s to 731 s.

Going from `COc1ccc(C)cc1NC(=O)NCCc1cn(C)c2ncccc12` to `COc1ccc(Cl)cc1NC(=O)N1CCN(CCn2c(C(F)(F)F)nc3cccnc32)CC1`, the RP-LC retention time rises from 676 s to 696 s.

Going from `CCc1cccc(NS(=O)(=O)c2cc(-c3[nH]ncc3C(=O)N(C)C)oc2C)c1` to `CNC(=O)c1ccc(-c2nc3cc(NS(=O)(=O)c4cc(C)c(C)cc4C)ccc3n2C)cc1`, the RP-LC retention time falls from 718 s to 713 s.

Going from `CCOc1ccccc1C(=O)N1CCc2c(c(-c3nc(C4CC4)no3)nn2C)C1` to `Cn1nc(-c2nc(Cc3ccccc3)no2)c2c1CCN(C(=O)Nc1ccccc1)C2`, the RP-LC retention time rises from 828 s to 905 s.

Going from `Cn1c(=O)c2ccn(CC(=O)Nc3ccc(F)cc3Cl)c2n(C)c1=O` to `CC(C)Cn1ccc2c(cc(C(=O)Nc3ccc(OC(F)(F)F)cc3)n2C)c1=O`, the RP-LC retention time rises from 695 s to 1020 s.

Compared with `Cn1c(=O)c(N2CCC(C(=O)NCCc3ccco3)CC2)nc2cccnc21`, `CCC(C)NC(=O)C1CCN(c2nccc(-n3nc(C)cc3C)n2)CC1` (centres undefined) is lower in RP-LC retention time: 811 s for the first, 745 s for the second.

First: COc1cc2c(cc1OC)C1C(C(=O)Nc3ccc4c(c3)OCCO4)c3ccccc3C(=O)N1CC2 (centres undefined)
Second: COc1ccc(-c2cc3nn(CC(=O)N4CCc5ccccc54)c(=O)n3c(C)n2)cc1
The RP-LC retention time of the first is lower: 772 s for the first, 856 s for the second.

Going from `CC1Cc2ccccc2N1C(=O)CSc1nnc(-c2ccccc2)o1` (centres undefined) to `O=C(CN1CCN(Cc2ccccc2Cl)CC1)Nc1nc(-c2ccccc2)cs1`, the RP-LC retention time falls from 1010 s to 747 s.

First: CCOc1ccc(-n2cc(C(=O)OCC(=O)OC(C)(C)C)c3ccccc3c2=O)cc1
Second: CC(=O)c1ccc(OC(=O)c2ccc3c(c2)C(=O)N(c2ccccc2)C3=O)cc1
The RP-LC retention time of the first is higher: 1220 s for the first, 751 s for the second.

Going from `COc1ccc(-c2nc(CN3CCCC3=O)no2)cc1` to `COc1ccc(-c2cc(C(F)(F)F)n3ncc(C(=O)O)c3n2)cc1`, the RP-LC retention time rises from 735 s to 822 s.

Compared with `CCCN(CC1CCOC1)C(=O)Nc1ccc(C)cc1Cl` (centres undefined), `CN(CC1CCOCC1)C(=O)Nc1ccccc1F` is lower in RP-LC retention time: 902 s for the first, 720 s for the second.

First: CCc1ccc(N2CC(c3noc(-c4cc(OC)c(OC)c(OC)c4)n3)CC2=O)cc1 (centres undefined)
Second: Cc1ccc(N2CC(c3nc(-c4ccc5oc(C)nc5c4)no3)CC2=O)cc1 (centres undefined)
The RP-LC retention time of the first is higher: 927 s for the first, 903 s for the second.

Going from `CCCNC(=O)c1nc2ccccn2c1-c1ccc(F)cc1` to `O=C(Cc1cn2cc(F)ccc2n1)Nc1ccccc1`, the RP-LC retention time falls from 730 s to 580 s.

First: C=CCSc1nnc(Cc2cc(=O)[nH]c(=O)[nH]2)n1-c1ccc(Cl)cc1
Second: O=C1Nc2ccccc2OC1C(=O)N1CCN(c2ccc(Cl)cc2)CC1 (centres undefined)
The RP-LC retention time of the first is lower: 624 s for the first, 889 s for the second.

Compared with `COC(CNC(=O)c1cc(C)nn1-c1ccccc1)OC`, `CC(C)CNC(=O)CN1c2ccc(F)cc2-c2ccccc2S1(=O)=O` is higher in RP-LC retention time: 659 s for the first, 920 s for the second.

First: O=C(N[C@H]1C[C@@H]2C[C@H]1N(C(=O)Cc1c(F)cccc1Cl)C2)c1cccnc1
Second: CN(C)C(=O)c1cccnc1OC1CCN(C(=O)c2cccc(Br)c2)C1 (centres undefined)
The RP-LC retention time of the first is lower: 695 s for the first, 709 s for the second.

First: CNC(=O)c1sc2nc(-c3cccc(F)c3)c(NCCOC)n2c1C
Second: CCCc1nc(-n2cccc2)sc1C(=O)Nc1ccc(OC)cc1F
The RP-LC retention time of the first is lower: 734 s for the first, 1150 s for the second.

Compared with `COc1ccc(S(=O)(=O)N(C)CC2(C)CCOCC2)cc1Cl`, `O=C(Nc1ccc(F)cc1Cl)C1CCc2nc(N3CCOCC3)ncc2C1` (centres undefined) is lower in RP-LC retention time: 925 s for the first, 793 s for the second.

Compared with `Clc1ccc(C2Cn3nnc(-c4nc(-c5ccccn5)no4)c3CO2)cc1` (centres undefined), `COc1cccc(C2Cn3nnc(-c4nc(-c5ccccc5)no4)c3CO2)c1` (centres undefined) is higher in RP-LC retention time: 936 s for the first, 1130 s for the second.

Going from `COC(=O)c1c(C)[nH]c(C(=O)N2CCC(CC(=O)NC(C)C)CC2)c1C` to `Cc1[nH]c(C(=O)N2CCCC(C(=O)NC(C)CCc3ccccc3)C2)c(C)c1C(=O)OC(C)C` (centres undefined), the RP-LC retention time rises from 663 s to 955 s.

Compared with `O=C(Nc1nc(-c2ccc(Cl)cc2)cs1)c1ccc2c(c1)OCO2`, `Cc1nc2ccn(Cc3cccnc3)c(=O)c2cc1C(=O)NCc1ccc2c(c1)OCO2` is lower in RP-LC retention time: 1110 s for the first, 592 s for the second.

Compared with `Cc1ccc(NS(=O)(=O)c2c(C)sc(C)c2-c2cc(C(F)(F)F)on2)cc1`, `Cc1sc(-c2nc(C(C)C)cs2)cc1S(=O)(=O)Nc1ccccc1F` is lower in RP-LC retention time: 1190 s for the first, 1170 s for the second.

Compared with `Cc1csc(-c2cc(S(=O)(=O)NCc3ccc(OC(C)C)cc3)c(C)s2)n1`, `Cc1csc(-c2cc(S(=O)(=O)Nc3cc(F)ccc3F)cn2CC(=O)N2CCCC2)n1` is lower in RP-LC retention time: 1060 s for the first, 874 s for the second.

First: CSCCC(NC(=O)COc1cccc2ccccc12)C(=O)O (centres undefined)
Second: CCCCNC(=O)c1nccnc1NC(=O)c1ccccc1
The RP-LC retention time of the first is lower: 769 s for the first, 903 s for the second.

First: COCCN(CCNC(=O)c1cc(-c2ccccn2)nc2ccccc12)Cc1ccco1
Second: O=C(Nc1cccc(Br)c1)c1cc(-c2ccccn2)n[nH]1
The RP-LC retention time of the first is lower: 660 s for the first, 843 s for the second.

First: COc1ccc(-c2ccnn2-c2ccc(SCC(N)=O)nn2)cc1
Second: COc1ccc(N2CCN(c3cc(SCC(=O)Nc4cc(F)ccc4F)ncn3)CC2)cc1
The RP-LC retention time of the first is lower: 777 s for the first, 1130 s for the second.

Compared with `CCc1ccccc1NC(=O)Cn1cnc2nc(N3CCCC(C(=O)NC4CC4)C3)sc2c1=O` (centres undefined), `CC1CCCCN1S(=O)(=O)c1ccc2c(c1)CCC(=O)N2CC(=O)NCCc1ccccc1` (centres undefined) is higher in RP-LC retention time: 692 s for the first, 900 s for the second.

Compared with `Cc1ccc(-c2nnc(-c3cccnc3NCCCN3CCOCC3)o2)cc1`, `Cc1oc(-c2ccc(NC(=O)CC3CCCC3)cc2)nc1Cn1cccn1` is higher in RP-LC retention time: 690 s for the first, 896 s for the second.

Compared with `O=C(Nc1ccc(N2CCN(c3ccccc3)C2=O)nc1)c1ccc(Cl)cc1`, `CC(C)N1C(=O)c2cccnc2Sc2cc(NC(=O)c3ccc(F)c(F)c3)ccc21` is lower in RP-LC retention time: 1010 s for the first, 925 s for the second.

First: COCCC(=O)N1CCN(c2nc(CN3CCOCC3)cs2)CC1
Second: CCOC(=O)CNC(=O)Nc1cc(F)c2nc(N3CCCCC3)ccc2c1
The RP-LC retention time of the first is higher: 686 s for the first, 596 s for the second.

First: COc1ccc(NC(=O)c2nc(N3CCC(C)CC3)c3cnn(C)c3n2)cc1
Second: CCOC(=O)Cc1ccc(NC(=O)N2CCSc3nc(C)cc(C)c32)cc1
The RP-LC retention time of the first is higher: 966 s for the first, 735 s for the second.

Compared with `O=C(Nc1ccc(-c2nc3ccccc3o2)cc1)Nc1c(F)cccc1F`, `Cc1ccc(Nc2c(-c3ccc(O)cc3)nc3c(C)cccn23)cc1` is lower in RP-LC retention time: 870 s for the first, 676 s for the second.

First: Cc1c(Cl)cccc1NC(=O)N1C[C@@H](F)C[C@H]1C(=O)N1CCCCC1
Second: CCOC(=O)c1ccc(NC(=O)N2CCCC2c2cc(C)no2)cc1 (centres undefined)
The RP-LC retention time of the first is lower: 718 s for the first, 809 s for the second.

Compared with `CCOC(=O)c1c(C)[nH]c(C(=O)CC(=O)OC)c1C`, `CCOC(=O)c1ccc(NC(=O)N2CC=C(c3cn(CC)c4ncccc34)CC2)cc1` is lower in RP-LC retention time: 696 s for the first, 606 s for the second.

First: CC(=O)c1ccc(NS(C)(=O)=O)c(Oc2ccc(F)cc2F)c1
Second: COc1ccc(Cl)cc1NC(=O)c1nc2nc(C)cc(C(F)F)n2n1
The RP-LC retention time of the first is lower: 954 s for the first, 959 s for the second.

First: CC1CCC2(CC1)NC(=O)N(CC(=O)N(C)c1ccccc1)C2=O (centres undefined)
Second: CC(=O)Nc1ccc(C(=O)N(C2CC2)C2(C(=O)NCc3ccccc3)CCN(C(C)=O)CC2)cc1
The RP-LC retention time of the first is higher: 805 s for the first, 692 s for the second.

Going from `Cc1ccc(CCC(=O)Nc2nc(-c3ccc4c(c3)NC(=O)C(C)O4)c(C)s2)cc1` (centres undefined) to `Cc1ccccc1-n1c(=O)c2sccc2n(Cc2nc(-c3ccc(C(C)(C)C)cc3)no2)c1=O`, the RP-LC retention time rises from 1010 s to 1080 s.

`Cc1cc(C)c(S(=O)(=O)N2CCCC2c2nc(-c3ccccc3)no2)c(C)c1` (centres undefined) and `Cc1nc(-c2cccc(-c3noc(-c4ccc5cc[nH]c5c4)n3)c2)cs1` are the same in RP-LC retention time: 1230 s for the first, 1230 s for the second.

First: CC(C)N(CCCNC(=O)Cn1cc2c(n1)CCCCC2)Cc1ccccc1
Second: CCCn1ccc2oc(C)c(C(=O)NCc3ccccc3Br)c2c1=O
The RP-LC retention time of the first is lower: 674 s for the first, 1110 s for the second.

First: CC(C)OCCCNC(=O)C1CC(=O)N(c2n[nH]c3cc(Br)ccc23)C1 (centres undefined)
Second: O=C1CCCN1CCCNc1nc(C2CC2)nc2c1CCC2
The RP-LC retention time of the first is higher: 690 s for the first, 581 s for the second.

Going from `Cn1cccc1C(=O)Nc1cnn(-c2ncc(N3CCSCC3)cn2)c1` to `Cc1c(-c2ccnc(N3CCN(Cc4ccccc4)CC3)n2)cnc2nc(-c3ccc(Cl)cc3)nn12`, the RP-LC retention time rises from 768 s to 796 s.

Work on `COc1ccc(CC(=O)Nc2cccc(-c3ccc4nnc(-c5ccncc5)n4n3)c2)cc1` yielded an RP-LC retention time of 624 s.
